# ChEMBL document CHEMBL3769400, “Synthesis of minoxidil conjugates and their evaluation as HL-60 differentiation agents” (Bioorg Med Chem Lett, 2016)
# pIC50: −log10 of the molar value. The source made the active and inactive calls. No cut-off for these calls is given here.
# Key:
# HL-60 [1] = assay: Induction of cell differentiation in human HL60 cells assessed as increase in differentiation index at 10 uM measured after 5 days by NBT/MTT assay; format: functional, cell-based
# HL-60 [2] = assay: Induction of cell differentiation in human HL60 cells assessed as increase in differentiation index at 10 uM measured after 3 days by NBT/MTT assay; format: functional, cell-based
# [3] = Induction of cell differentiation in human HL60 cells by NBT/MTT assay; format: functional, cell-based; details: HL-60
# PBMC = assay: Cytotoxicity against human PBMC cells assessed as cell viability by MTT assay; format: cell-based
# HL-60 [4] = assay: Induction of cell differentiation in human HL60 at 10 uM after 3 days by leishmans staining based microscopic analysis; format: functional
# HL-60 [5] = assay: Induction of cell differentiation in human HL60 cells assessed as irregularity of nuclear and cytoplasmic shape after 3 days at 10 uM by leishmans staining based microscopic analysis; format: functional
# HL-60 [6] = assay: Induction of cell differentiation in human HL60 cells assessed as condensation of nuclear chromatin after 3 days at 10 uM by leishmans staining based microscopic analysis; format: functional
# HL-60 [7] = assay: Induction of cell differentiation in human HL60 assessed as reduction in cell number after 3 days at 10 uM by leishmans staining based microscopic analysis; format: functional
# HL-60 [8] = assay: Induction of cell differentiation in human HL60 cells at 0.1 to 10 uM measured after 5 days by NBT/MTT assay; format: functional, cell-based
# HL-60 [9] = assay: Induction of cell differentiation in human HL60 cells at 0.1 to 10 uM measured after 3 days by NBT/MTT assay; format: functional, cell-based
# HL-60 [10] = assay: Induction of cell differentiation in human HL60 cells at 10 uM co-administered with DAF measured after 3 days by NBT/MTT assay; format: functional, cell-based
# HL-60 [11] = assay: Induction of cell differentiation in human HL60 cells at 10 uM co-administered with MDA measured after 3 days by NBT/MTT assay; format: functional, cell-based
Structure (SMILES),Activity (HL-60 [2]),pIC50 [3],Activity (PBMC),also measured
Nc1nc(N2CCCCC2)cc(NC(=O)NC(c2ccccc2)c2ccccc2)[n+]1[O-],Active,5.52,Toxic,Activity (HL-60 [1]): Active
N#CCCNC(=O)Nc1cc(N2CCCCC2)nc(N)[n+]1[O-],–,< 5.00,–,–
Nc1ccc(Cc2ccc(N)cc2)cc1,inactive,–,–,Activity (HL-60 [4]): inactive
CCCCNC(=O)Nc1cc(N2CCCCC2)nc(N)[n+]1[O-],–,< 5.00,–,–
NCCCCNC(=O)Nc1cc(N2CCCCC2)nc(N)[n+]1[O-],–,< 5.00,–,–
Nc1ccc(Cc2ccc(NC(=O)Nc3cc(N4CCCCC4)nc(N)[n+]3[O-])cc2)cc1,Active,5.52,Toxic,Activity (HL-60 [1]): Active; Activity (HL-60 [5]): Active; Activity (HL-60 [6]): Active; Activity (HL-60 [7]): Active
CC1=C(/C=C/C(C)=C/C=C/C(C)=C/C(=O)O)C(C)(C)CCC1,–,–,–,Activity (HL-60 [8]): Active; Activity (HL-60 [9]): Active
Nc1cc(N2CCCCC2)nc(N)[n+]1[O-] [MINOXIDIL],–,< 5.00,–,Activity (HL-60 [10]): inactive; Activity (HL-60 [11]): inactive; Activity (HL-60 [4]): inactive
Nc1nc(N2CCCCC2)cc(NC(=O)NCc2ccccc2)[n+]1[O-],–,< 5.00,–,–
NCCCCCCNC(=O)Nc1cc(N2CCCCC2)nc(N)[n+]1[O-].O=C(O)C(F)(F)F,–,5.48,Toxic,Activity (HL-60 [5]): Active; Activity (HL-60 [8]): inactive; Activity (HL-60 [9]): Active; Activity (HL-60 [6]): Active; Activity (HL-60 [7]): Active
Nc1ccc2c(c1)Cc1cc(NC(=O)Nc3cc(N4CCCCC4)nc(N)[n+]3[O-])ccc1-2,Active,5.52,Toxic,Activity (HL-60 [1]): Active; Activity (HL-60 [5]): Active; Activity (HL-60 [6]): Active; Activity (HL-60 [7]): Active
CCCCCCCCCCCCCC(=O)O[C@@H]1[C@@H](C)[C@@]2(O)[C@@H](C=C(CO)C[C@]3(O)C(=O)C(C)=C[C@@H]23)[C@@H]2C(C)(C)[C@]12OC(C)=O,–,–,–,Activity (HL-60 [4]): inactive
Nc1ccc2c(c1)Cc1cc(N)ccc1-2,inactive,–,–,–
COc1ccc(C(NC(=O)Nc2cc(N3CCCCC3)nc(N)[n+]2[O-])c2ccc(OC)cc2)cc1,–,< 5.00,–,–
NCCCNCCCCNCCCNC(=O)Nc1cc(N2CCCCC2)nc(N)[n+]1[O-].O=C(O)C(F)(F)F.O=C(O)C(F)(F)F.O=C(O)C(F)(F)F,Active,5.52,Toxic,Activity (HL-60 [1]): Active
